{"source": "patent US7091351B2", "about": "“Vanadium compounds for treating cancer” (Parker Hughes Institute, priority 1998, dated 2006)", "type_in_all_cases": "cell-based, human", "key": {"[1]": {"system": "Tera-2 testicular cancer cells", "test": "MTT cytotoxicity assay of vanadocenes, TERA-2 cells", "conditions": "24 h, 1.9-250 μM", "method_in_brief": "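Cells seeded in triplicate, after 24 h exposed to two-fold serial dilutions of vanadocenes (1.9–250 μM; DMSO vehicle, 0.25% DMSO control) for 24 h. MTT added for 4 h at 37 °C, formazan dissolved in SDS/HCl overnight, OD read at 540 nm; IC50 values reported.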"}, "HL-60 cells": {"system": "HL-60 cells", "test": "MTT cytotoxicity assay of oxovanadium(IV) compounds, HL-60", "conditions": "48 hr", "procedure": "(§1) The cytotoxicity of oxovanadium (W) complexes listed in Table 6 were tested against 9 different human cancer cell lines was performed using the MTT (3-[4,5-dimethylthiazol-2-yl]-2,5-diphenyl tetrazolium bromide) assay (Boehringer Mannheim Corp., Indianapolis, Ind.) as described previously (20). Briefly, exponentially growing tumor cells were seeded into a 96-well plate at a density of 4×10^4cells/well and incubated with medium containing the oxovanadium(IV) compounds concentrations ranging from 0.1 to 250 μM for 48 hours at 37° C. in a humidified 5% CO2 atmosphere. Triplicate wells were used for each treatment. To each well, 10 μl of MTT (0.5 mg/ml final concentration) was added and the plates were incubated at 37° C. for 4 hours to allow MTT to form formazan crystals by reacting with metabolically active cells . The formazan crystals were solubilized overnight at 37° C. in a solution containing 10% SDS in 0.01 M HCl. The absorbence of each well was measured in a microplate reader (Labsystems) at 540 nm and a reference wavelength of 690 nm. To translate the OD540 values into the number of live cells in each well, the OD540 values were compared to those on standard OD540—versus—cell number curves generated for each cell line. The percent survival was calculated using the formula: % survival=Live cell number[test]/Live cell number [control]×100. The IC50 values were calculated by non-linear regression analysis using an Graphpad Prism software version 2.0 (Graphpad Software, Inc., San Diego, Calif.)."}, "U373 glioblastoma cells": {"system": "U373 glioblastoma cells", "test": "Cytotoxic activity of oxovanadium(IV) compounds, U373", "conditions": "read-out: Cytotoxic Activity U373", "procedure": "as §1"}}, "note": "Where “and” joins values, the source holds several entries; their conditions need not be identical. Equal values may be shown once.", "data": [{"compound": "[Cl-].[Cl-].[V+4].c1cc[cH-]c1.c1cc[cH-]c1", "note": "[VDC, VCp2Cl2]", "values": [{"measurement": "IC50", "setting": "[1]", "result": "80.6 µM and 81 µM"}]}, {"compound": "bis(4,7-dimethyl-1,10-phenanthroline)sulfatooxovanadium(IV) [Compound 29]", "values": [{"measurement": "IC50", "setting": "HL-60 cells", "result": "0.98 ± 0.1", "unit": "µM"}, {"measurement": "IC50", "setting": "U373 glioblastoma cells", "result": 1.8, "unit": "µM"}]}]}
